What was measured:
Assay type in all cases: functional, cell-based
[1] = system: A549; assay: Cytotoxicity against A549 cells after 48 hrs by MTT assay; conditions: Homo sapiens, A549, 48 h
[2] = system: SMMC-7721; assay: Cytotoxicity against SMMC7721 cells after 48 hrs by MTT assay; conditions: Homo sapiens, SMMC-7721, 48 h
[3] = system: AGS; assay: Cytotoxicity against AGS cells after 48 hrs by MTT assay; conditions: Homo sapiens
[4] = system: HT-29; assay: Cytotoxicity against HT29 cells after 48 hrs by MTT assay; conditions: Homo sapiens, HT-29, 48 h

SMILES	IC50 [1]	IC50 [2]	IC50 [3]	IC50 [4]
O=c1[nH]cc(F)c(=O)[nH]1 [FLUOROURACIL]	9.2 µM	51 µM	370 µM	540 µM
CC(/C=C/C=C(\C)C(=O)O)=C\C=C\C(C)=C1\C(=O)C[C@H]2[C@@]3(C)CC[C@H](O)C(C)(C)[C@@H]3CC[C@]12C [STELLETTIN L]	28 µM	120 µM	3.9 µM	33 µM
CC(/C=C/C=C(C)/C=C/C=C(\C)C(=O)O)=C1/C(=O)C[C@H]2[C@@]3(C)CC[C@H](O)C(C)(C)[C@@H]3CC[C@]12C [STELLETTIN M]	34 µM	90 µM	2.1 µM	42 µM
CC[C@]1(O)C[C@H]2CN(CCc3c([nH]c4ccccc34)[C@@](C(=O)OC)(c3cc4c(cc3OC)N(C=O)[C@H]3[C@@](O)(C(=O)OC)[C@H](OC(C)=O)[C@]5(CC)C=CCN6CC[C@]43[C@@H]65)C2)C1 [VINCRISTINE]	0.36 µM	< 0.12 µM	< 0.12 µM	0.21 µM
